Legend:
Conditions in all cases: averaged IC50
[1] = biological target: His-tagged recombinant human MER cytoplasmic domain (Homo sapiens (Human), UniProt Q12866); test: MER Enzyme Assay (LanthaScreen Eu Kinase Binding, TR-FRET)
Method in brief: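 Percent of control, derived from ratiometric TR-FRET emission, was fitted to a 4-parameter logistic curve and IC50 taken at 50 POC. Binding was read after 60 min at 22 °C using Eu-based LanthaScreen technology and recombinant His-tagged MER cytoplasmic domain.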

[2] = biological target: GST-tagged recombinant human TYRO3 kinase domain (Homo sapiens (Human), UniProt Q06418); test: TYRO3 Enzyme Assay (LanthaScreen Eu Kinase Binding, TR-FRET)
Method in brief: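 LanthaScreen Eu binding (tracer displacement) format read by TR-FRET after 60 min at 22 °C. Emission ratio converted to percent of control; IC50 taken where a 4-parameter logistic fit crosses 50 POC.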

[3] = biological target: His-tagged recombinant human AXL cytoplasmic domain (Homo sapiens (Human), UniProt P30530); test: AXL Enzyme Assay (LanthaScreen Eu Kinase Binding, TR-FRET)
Method in brief: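 Compound displacement measured by TR-FRET after 60 min at 22 °C, using Eu-based LanthaScreen binding technology. Ratiometric emission converted to percent of control, fitted to a 4-parameter logistic curve, with IC50 at 50 POC.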

Sequence of GST-tagged recombinant human TYRO3 kinase domain (Q06418 518-790): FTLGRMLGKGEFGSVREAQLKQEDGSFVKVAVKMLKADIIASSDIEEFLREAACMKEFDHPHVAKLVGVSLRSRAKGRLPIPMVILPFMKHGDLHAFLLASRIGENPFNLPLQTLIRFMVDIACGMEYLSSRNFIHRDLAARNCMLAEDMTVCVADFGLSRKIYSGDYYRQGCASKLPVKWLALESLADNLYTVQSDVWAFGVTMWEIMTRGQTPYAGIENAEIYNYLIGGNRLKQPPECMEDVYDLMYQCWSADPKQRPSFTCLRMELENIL
Sequence of His-tagged recombinant human AXL cytoplasmic domain (P30530 473-894): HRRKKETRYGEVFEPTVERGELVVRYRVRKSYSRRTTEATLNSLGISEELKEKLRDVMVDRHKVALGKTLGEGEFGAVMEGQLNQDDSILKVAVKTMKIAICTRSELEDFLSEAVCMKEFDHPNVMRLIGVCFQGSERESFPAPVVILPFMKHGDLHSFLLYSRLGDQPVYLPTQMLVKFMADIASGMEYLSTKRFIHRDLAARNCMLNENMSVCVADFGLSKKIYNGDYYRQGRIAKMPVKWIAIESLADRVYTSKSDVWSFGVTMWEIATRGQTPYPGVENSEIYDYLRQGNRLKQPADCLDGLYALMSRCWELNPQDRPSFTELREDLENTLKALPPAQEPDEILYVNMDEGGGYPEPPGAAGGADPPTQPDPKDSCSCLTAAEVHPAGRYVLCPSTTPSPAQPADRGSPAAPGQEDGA
Sequence of His-tagged recombinant human MER cytoplasmic domain (Q12866 527-999): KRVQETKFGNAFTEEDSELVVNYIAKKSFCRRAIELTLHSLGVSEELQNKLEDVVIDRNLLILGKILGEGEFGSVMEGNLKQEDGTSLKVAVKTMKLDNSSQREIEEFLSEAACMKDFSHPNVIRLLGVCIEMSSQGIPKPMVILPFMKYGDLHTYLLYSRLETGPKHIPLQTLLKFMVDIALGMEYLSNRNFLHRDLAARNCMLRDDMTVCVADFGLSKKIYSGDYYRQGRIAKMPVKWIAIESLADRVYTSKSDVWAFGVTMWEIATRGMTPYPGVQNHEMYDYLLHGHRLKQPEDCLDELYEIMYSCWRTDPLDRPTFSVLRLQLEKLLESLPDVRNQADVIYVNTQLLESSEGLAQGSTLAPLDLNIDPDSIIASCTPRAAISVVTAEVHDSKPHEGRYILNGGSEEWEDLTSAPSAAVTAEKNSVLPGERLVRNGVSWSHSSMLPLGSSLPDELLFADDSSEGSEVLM

SMILES | IC50 [1] [nM] | IC50 [2] [nM] | IC50 [3] [nM]
CNc1cc2c(cn1)c(-c1cnn(C[C@@H](O)CO)c1)nn2[C@H]1CC[C@@H](Oc2ccccc2C(F)(F)F)CC1 [Example 419, (R)-3-(4-(6-(methylamino)-1-((1s,4S)-4-(2-(trifluoromethyl)phenoxy)-cyclohexyl)-1H-pyrazolo[4,3-c]pyridin-3-yl)-1H-pyrazol-1-yl)propane-1,2-diol] | < 10 | 10 to 100 | < 10
CCNc1cc2c(cn1)c(-c1cnn(C[C@@H](O)CO)c1)nn2[C@H]1CC[C@@H](Oc2cccc(Cl)c2)CC1 [Example 422] | < 10 | 10 to 100 | < 10
CCNc1cc2c(cn1)c(-c1cnn(C[C@@H](O)CO)c1)nn2[C@H]1CC[C@@H](Oc2ccc(F)cc2F)CC1 [Example 423, (R)-3-(4-(1-((1s,4S)-4-(2,4-difluorophenoxy)cyclohexyl)-6-(ethylamino)-1H-pyrazolo[4,3-c]pyridin-3-yl)-1H-pyrazol-1-yl)propane-1,2-diol] | < 10 | 10 to 100 | < 10
CCNc1cc2c(cn1)c(-c1cnn(C[C@@H](O)CO)c1)nn2[C@H]1CC[C@@H](Oc2cccc(F)c2F)CC1 [Example 429, (R)-3-(4-(1-((1s,4S)-4-(2,3-difluorophenoxy)cyclohexyl)-6-(ethylamino)-1H-pyrazolo[4,3-c]pyridin-3-yl)-1H-pyrazol-1-yl)propane-1,2-diol] | < 10 | < 10 | < 10
CCNc1cc2c(cn1)c(-c1cnn(CC(C)(O)CO)c1)nn2[C@H]1CC[C@@H](Oc2ccccc2F)CC1 (stereo partly drawn) [Example 431, 3-(4-(6-(ethylamino)-1-((1s,4s)-4-(2-fluorophenoxy)cyclohexyl)-1H-pyrazolo[4,3-c]pyridin 3-yl)-1H-pyrazol-1-yl)-2-methylpropane-1,2-diol] | < 10 | 10 to 100 | < 10
CNc1cc2c(cn1)c(-c1cnn(C[C@@H](N)CO)c1)nn2[C@H]1CC[C@@H](Oc2ccccc2F)CC1 [Example 432, (R)-2-amino-3-(4-(1-((1s,4S)-4-(2-fluorophenoxy)cyclohexyl)-6-(methylamino)-1H-pyrazolo[4,3-c]pyridin-3-yl)-1H-pyrazol-1-yl)propan-1-ol] | < 10 | < 10 | < 10
CNc1cc2c(cn1)c(-c1cnn(C[C@H](N)CO)c1)nn2[C@H]1CC[C@@H](Oc2ccccc2F)CC1 [Example 433, (S)-2-amino-3-(4-(1-((1s,4S)-4-(2-fluorophenoxy)cyclohexyl)-6-(methylamino)-1H-pyrazolo[4,3-c]pyridin-3-yl)-1H-pyrazol-1-yl)propan-1-ol] | < 10 | < 10 | < 10
CCNc1cc2c(cn1)c(-c1cnn(C[C@@H](O)CO)c1)nn2[C@H]1CC[C@@H](Oc2cccc(Cl)c2F)CC1 [Example 434, (R)-3-(4-(1-((1s,4S)-4-(3-chloro-2-fluorophenoxy)cyclohexyl)-6-(ethylamino)-1H-pyrazolo[4,3-c]pyridin-3-yl)-1H-pyrazol-1-yl)propane-1,2-diol] | < 10 | < 10 | < 10
CCNc1cc2c(cn1)c(-c1cnn(C[C@@H](O)CO)c1)nn2[C@H]1CC[C@@H](Oc2ccc(F)cc2Cl)CC1 [Example 436, (R)-3-(4-(1-((1s,4S)-4-(2-chloro-4-fluorophenoxy)cyclohexyl)-6-(ethylamino)-1H-pyrazolo[4,3-c]pyridin-3-yl)-1H-pyrazol-1-yl)propane-1,2-diol] | < 10 | 10 to 100 | < 10
CCNc1cc2c(cn1)c(-c1cnn(C[C@@H](O)CO)c1)nn2[C@H]1CC[C@@H](Oc2cccc(F)c2Cl)CC1 [Example 437, (R)-3-(4-(1-((1s,4S)-4-(2-chloro-3-fluorophenoxy)cyclohexyl)-6-(ethylamino)-1H-pyrazolo[4,3-c]pyridin-3-yl)-1H-pyrazol-1-yl)propane-1,2-diol] | < 10 | 10 to 100 | < 10
CCNc1cc2c(cn1)c(-c1cnn(C[C@@H](O)CO)c1)nn2[C@H]1CC[C@@H](Oc2cccc(Cl)c2Cl)CC1 [Example 439] | < 10 | 10 to 100 | < 10
CCNc1cc2c(cn1)c(-c1cnn(C[C@H](O)C(C)(C)O)c1)nn2[C@H]1CC[C@@H](Oc2ccccc2F)CC1 [Example 440, (S)-1-(4-(6-(ethylamino)-1-((1s,4R)-4-(2-fluorophenoxy)cyclohexyl)-1H-pyrazolo[4,3-c]pyridin-3-yl)-1H-pyrazol-1-yl)-3-methylbutane-2,3-dioI] | < 10 | 10 to 100 | < 10
CCNc1cc2c(cn1)c(-c1cnn(C[C@@H](O)C(C)(C)O)c1)nn2[C@H]1CC[C@@H](Oc2ccccc2F)CC1 [Example 442, (R)-1-(4-(6-(ethylamino)-1-((1s,4S)-4-(2-fluorophenoxy)cyclohexyl)-1H-pyrazolo[4,3-c]pyridin-3-yl)-1H-pyrazol-1-yl)-3-methylbutane-2,3-diol] | < 10 | 10 to 100 | < 10
CCNc1cc2c(cn1)c(-c1cnn(C[C@H](O)CO)c1)nn2[C@H]1CC[C@@H](Oc2ccc(F)cc2F)CC1 [Example 444, (S)-3-(4-(1-((1s,4R)-4-(2,4-difluorophenoxy)cyclohexyl)-6-(ethylamino)-1H-pyrazolo[4,3-c]pyridin-3-yl)-1H-pyrazol-1-yl)propane-1,2-diol] | < 10 | 10 to 100 | < 10
CCNc1cc2c(cn1)c(-c1cnn(C[C@H](O)C(C)(C)O)c1)nn2[C@H]1CC[C@@H](Oc2cccc(F)c2F)CC1 [Example 445, (S)-1-(4-(1-((1s,4R)-4-(2,3-difluorophenoxy)cyclohexyl)-6-(ethylamino)-1H-pyrazolo[4,3-c]pyridin-3-yl)-1H-pyrazol-1-yl)-3-methylbutane-2,3-diol] | < 10 | < 10 | < 10
CCNc1cc2c(cn1)c(-c1cnn(C[C@@H](O)C(C)(C)O)c1)nn2[C@H]1CC[C@@H](Oc2cccc(F)c2F)CC1 [Example 446, (R)-1-(4-(1-((1s,4S)-4-(2,3-difluorophenoxy)cyclohexyl)-6-(ethylamino)-1H-pyrazolo[4,3-c]pyridin-3-yl)-1H-pyrazol-1-yl)-3-methylbutane-2,3-diol] | < 10 | < 10 | < 10
CCNc1cc2c(cn1)c(-c1cnn(C[C@@H](O)C(C)(C)O)c1)nn2[C@H]1CC[C@@H](Oc2ccc(F)cc2F)CC1 [Example 447, (R)-1-(4-(1-((1s,4S)-4-(2,4-difluorophenoxy)cyclohexyl)-6-(ethylamino)-1H-pyrazolo[4,3-c]pyridin-3-yl)-1H-pyrazol-1-yl)-3-methylbutane-2,3-diol] | < 10 | 10 to 100 | < 10
CCNc1cc2c(cn1)c(-c1cnn(C[C@H](O)C(C)(C)O)c1)nn2[C@H]1CC[C@@H](Oc2ccc(F)cc2F)CC1 [Example 448, (S)-1-(4-(1-((1s,4S)-4-(2,4-difIuorophenoxy)cyclohexyl)-6-(ethylamino)-1H pyrazolo[4,3-c]pyridin-3-yl)-1H-pyrazol-1-yl)-3-methylbutane-2,3-diol] | < 10 | 10 to 100 | < 10
CNc1cc2c(cn1)c(-c1cnn(C)c1)nn2[C@@H]1CC[C@H](Oc2ccccc2)[C@@H](O)C1 [Example 471A, (1S,2S,5R)-5-(3-(1-methyl-1H-pyrazol-4-yl)-6-(methylamino)-1H-pyrazolo[4,3-c]pyridin-1-yl)-2-phenoxycyclohexan-1-ol] | < 10 | 10 to 100 | < 10
CNc1cc2c(cn1)c(-c1cnn(C)c1)nn2[C@H]1CC[C@@H](Oc2ccccc2)[C@H](O)C1 [Example 471B, (1R,2R,5S)-5-(3-(1-methyl-1H-pyrazol-4-yl)-6-(methylamino)-1H-pyrazolo[4,3-c]pyridin-1-yl)-2-phenoxycyclohexan-1-ol] | < 10 | 10 to 100 | < 10
CCNc1cc2c(cn1)c(-c1cnn(C[C@@H](O)CO)c1)nn2[C@H]1CC[C@@H](Oc2nccc(C#N)c2F)CC1 [Example 487, 2-(((1S,4s)-4-(3-(1-((R)-2,3-dihydroxypropyl)-1H-pyrazol-4-yl)-6-(ethylamino)-1H-pyrazolo[4,3-c]pyridin-1-yl)cyclohexyl)oxy)-3-fluoroisonicotinonitrile] | < 10 | < 10 | < 10
CCNc1cc2c(cn1)c(N1CC[C@@H](O)C1)nn2[C@H]1CC[C@@H](Oc2nccc(C(F)(F)F)c2F)CC1 [Example 488, (R)-1-(6-(ethylamino)-1-((1s,4S)-4-((3-fluoro-4-(trifluoromethyl)pyridin-2-yl)oxy)cyclohexyl)-1H-pyrazolo[4,3-c]pyridin-3-yl)pyrrolidin-3-ol] | < 10 | 10 to 100 | < 10
CCNc1cc2c(cn1)c(N1CCC(N3CCN(C)CC3)CC1)nn2[C@H]1CC[C@@H](Oc2nccc(C(F)(F)F)c2F)CC1 [Example 489, N-ethyl-1-((1s,4s)-4((3-fluoro-4-(trifluoromethyl)pyridin-2-yl)oxy)cyclohexyl)-3-(4-(4-methylpiperazin-1-yl)piperidin-1-yl)-1H-pyrazolo[4,3-c]pyridin-6-amine] | < 10 | 10 to 100 | < 10
CCNc1cc2c(cn1)c(N1CCNCC1)nn2[C@H]1CC[C@@H](Oc2cccc(C(F)(F)F)c2F)CC1 [Example 490, N-ethyl-1-((1s,4s)-4-(2-fluoro-3-(trifluoromethyl)phenoxy)cyclohexyl)-3-(piperazin-1-yl)-1H-pyrazolo[4,3-c]pyridin-6-amine] | < 10 | < 10 | < 10

Reference: patent publication US11247990B1, “Bicyclic fused pyridine compounds as inhibitors of TAM kinases” (ARRAY BIOPHARMA INC., priority 2017, dated 2022)
